Assay results as given in patent US20230031406A1, “COMPOUNDS AND COMPOSITIONS FOR TREATING CONDITIONS ASSOCIATED WITH NLRP ACTIVITY” (Novartis AG, priority 2018, published 2023).
Read-outs that look alike come from different tables or passages of the source. One block for each compound: values may come before it.

Test system: PMA-differentiated THP-1 cells
Assay: IL-1β production in PMA-differentiated THP-1 cells stimulated with gramicidin (hTHP-1 assay containing 2% fetal bovine serum; Procedures 1 and 2)
Assay type: cell-based, human
Conditions: 2% fetal bovine serum
Method in brief: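 THP-1 cells were differentiated with PMA (20 ng/ml, 16-18 h), detached, and plated at 50,000 cells/well in RPMI 1640 with 2% FBS. They were pre-treated with compound (0.0017–100 μM, 0.37% DMSO) for 1 h, then stimulated with gramicidin (5 μM) for 2 h. Supernatant IL-1β was measured by HTRF.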

[1] = Homo sapiens, THP-1, Table B2, numeric bounds, read-out: hTHP-1 IC50
[2] = Table B2, class symbols, read-out: hTHP-1 IC50
[3] = Homo sapiens, THP-1, Table B2, class symbols, read-out: hTHP-1 IC50
[4] = Table B3, hTHP-1 assay, class symbols, read-out: IC50
[5] = Table B1, class symbols, read-out: Average IC50 of compounds in hTHP-1 assay: hTHP-1 IC50

Structure (SMILES): NS(=O)(=NC(=O)Nc1c2c(nc(C(F)(F)F)c1C1CC1)CCC2)c1nn(C(F)F)cc1F (single isomer, unassigned) [Example 775, (R) or (S)-N′-((3-cyclopropyl-2-(trifluoromethyl)-6,7-dihydro-5H-cyclopenta[b]pyridin-4-yl)carbamoyl)-1-(difluoromethyl)-4-fluoro-1H-pyrazole-3-sulfonimidamide]
- IC50 (Table B4, class symbols, read-out: hTHP-1 IC50): 40 to 200 nM

Structure (SMILES): CC1(C)CCc2c1nc1c(c2NC(=O)N=S(N)(=O)c2sc(C(C)(O)CO)nc2CO)CCC1 (stereo not shown) [Example 598, 2-(1,2-Dihydroxypropan-2-yl)-N′-((3,3-dimethyl-1,2,3,5,6,7-hexahydrodicyclopenta[b,e]pyridin-8-yl)carbamoyl)-4-(hydroxymethyl)thiazole-5-sulfonimidamide]
- IC50 (Homo sapiens, THP-1, Table B3, hTHP-1 assay, class symbols, read-out: IC50): 200 to 1000 nM

Structure (SMILES): NS(=O)(=NC(=O)Nc1c2c(nc3c1CCC3)CCC2)c1nn(C(F)F)cc1F (stereo not shown) [Example 735, 1-(Difluoromethyl)-4-fluoro-N′-((1,2,3,5,6,7-hexahydrodicyclopenta[b,e]pyridin-8-yl)carbamoyl)-1H-pyrazole-3-sulfonimidamide]
- IC50 (Homo sapiens, THP-1, Table B4, class symbols, read-out: hTHP-1 IC50): 200 to 1000 nM

Structure (SMILES): CC(C)(O)c1cc(F)c(S(N)(=O)=NC(=O)Nc2cc(CC(F)(F)F)nc3c2CCC3)s1 (stereo not shown) [Compound 602, 3-Fluoro-5-(2-hydroxypropan-2-yl)-N′-((2-(2,2,2-trifluoroethyl)-6,7-dihydro-5H-cyclopenta[b]pyridin-4-yl)carbamoyl)thiophene-2-sulfonimidamide]
- IC50 [3]: 1000 to 5000 nM

Structure (SMILES): CCc1c(CC(F)(F)F)nc2c(c1NC(=O)N=S(N)(=O)c1sc(C(C)(C)O)cc1F)CCC2 (single isomer, unassigned) [Example 639, (R) or (S)-N′-((3-ethyl-2-(2,2,2-trifluoroethyl)-6,7-dihydro-5H-cyclopenta[b]pyridin-4-yl)carbamoyl)-3-fluoro-5-(2-hydroxypropan-2-yl) thiophene-2-sulfonimidamide]
- IC50 [4]: 200 to 1000 nM

Structure (SMILES): Cc1c(C(F)(F)F)nc2c(c1NC(=O)N=S(N)(=O)c1cnn(C(F)F)c1)CCC2 (single isomer, unassigned) [Compound 617b, (S) or (R)-1-(Difluoromethyl)-N′-((3-methyl-2-(trifluoromethyl)-6,7-dihydro-5H-cyclopenta[b]pyridin-4-yl)carbamoyl)-1H-pyrazole-4-sulfonimidamide]
- IC50 [1]: > 30000 nM

Structure (SMILES): CC(O)c1nc(C(C)(C)O)sc1S(=N)(=O)NC(=O)Nc1c2c(nc3c1CCC3)CCC2 (stereo not shown) [Compound 643, N-((1,2,3,5,6,7-hexahydrodicyclopenta[b,e]pyridin-8-yl)carbamoyl)-4-(1-hydroxyethyl)-2-(2-hydroxypropan-2-yl)thiazole-5-sulfonimidamide]
- IC50 [2]: 5000 to 30000 nM

Structure (SMILES): CC(C)(O)c1csc(S(N)(=O)=NC(=O)Nc2cc(C3CC3)nc3c2CCC3)c1 (single isomer, unassigned) [Compound 176a, (S) or (R)-N′-((2-cyclopropyl-6,7-dihydro-5H-cyclopenta[b]pyridin-4-yl)carbamoyl)-4-(2-hydroxypropan-2-yl)thiophene-2-sulfonimidamide]
- IC50 [1]: > 30000 nM

Structure (SMILES): CC(C)n1cc(CO)c(S(N)(=O)=NC(=O)Nc2c3c(nc4c2CCC4(C)C)CCC3)n1 (single isomer, unassigned) [Compound 682b, (R) or (S)-N′-((3,3-dimethyl-1,2,3,5,6,7-hexahydrodicyclopenta [b,e]pyridin-8-yl)carbamoyl)-4-(hydroxymethyl)-1-isopropyl-1H-pyrazole-3-sulfonimidamide]
- IC50 [3]: 1000 to 5000 nM

Results, then the compound that gave them:

- IC50 (Table B1, numeric bounds, read-out: Average IC50 of compounds in hTHP-1 assay: hTHP-1 IC50): > 30000 nM
Structure (SMILES): Cc1c(-c2ccccc2)nc2c(c1NC(=O)N=S(N)(=O)c1cnc(C(C)(C)O)s1)CCC2 (single isomer, unassigned) [Compound 143b, (R) or (S)-2-(2-hydroxy-propan-2-yl)-N′-((3-methyl-2-phenyl-6,7-dihydro-5H-cyclopenta[b]pyridin-4-yl)carbamoyl)thiazole-5-sulfonimidamide]

- IC50 [1]: > 30000 nM
Structure (SMILES): Cc1c(C(F)(F)F)nc2c(c1NC(=O)N=S(N)(=O)c1cnc(C(C)(O)CO)s1)CCC2 (single isomer, unassigned) [Compound 605d, (R, S) and (S, S) or (R, R) and (S, R)-2-(l,2-Dihydroxypropan-2-yl)-N′-((3-methyl-2-(trifluoromethyl)-6,7-dihydro-5H-cyclopenta[b]pyridin-4-yl)carbamoyl) thiazole-5-sulfonimidamide]

- IC50 [2]: 40 to 200 nM
Structure (SMILES): C[C@@H]1CCc2c1nc1c(c2NC(=O)N=S(N)(=O)c2cc(F)c(C(C)(C)O)s2)CCC1 (single isomer, unassigned) [Compound 616a, (R) or (S)-4-Fluoro-5-(2-hydroxypropan-2-yl)-N′-(((R)-3-methyl-1,2,3,5,6,7-hexahydrodicyclopenta [b,e]pyridin-8-yl)carbamoyl) thiophene-2-sulfonimidamide]

- IC50 [3]: 5000 to 30000 nM
Structure (SMILES): Cc1c(C2(C)CC2)nc2c(c1NC(=O)N=S(N)(=O)c1cc(C(C)(C)O)cs1)CCC2 (single isomer, unassigned) [Compound 669b, (R) or (S)-4-(2-Hydroxypropan-2-yl)-N′-((3-methyl-2-(1-methylcyclopropyl)-6,7-dihydro-5H-cyclopenta[b]pyridin-4-yl)carbamoyl) thiophene-2-sulfonimidamide]

- IC50 [4]: 200 to 1000 nM
Structure (SMILES): CCc1ncc(S(N)(=O)=NC(=O)Nc2c3c(nc4c2CC[C@H]4C)CCC3)s1 (single isomer, unassigned) [Example 674, (R) or (S)-2-ethyl-N′-(((R)-3-methyl-1,2,3,5,6,7-hexahydrodicyclopenta[b,e]pyridin-8-yl)carbamoyl) thiazole-5-sulfonimidamide]

- IC50 [5]: 200 to 1000 nM
Structure (SMILES): Cc1c(C2CC2)nc2c(c1NC(=O)N=S(N)(=O)c1cnc(C(C)(C)O)s1)CCC2 (single isomer, unassigned) [Compound 124b, (R) or (S)-N′-((2-cyclopropyl-3-methyl-6,7-dihydro-5H-cyclopenta[b]pyridin-4-yl)carbamoyl)-2-(2-hydroxypropan-2-yl)thiazole-5-sulfonimidamide]

- IC50 (Homo sapiens, THP-1, Table B3, hTHP-1 assay, numeric values, read-out: IC50): > 30000 nM
Structure (SMILES): Cc1c(C(=O)O)nc2c(c1NC(=O)N=S(N)(=O)c1cnc(C(C)(C)O)s1)CCC2 (stereo not shown) [Example 636, 4-(3-(Amino(2-(2-hydroxypropan-2-yl)thiazol-5-yl)(oxo)-l6-sulfaneylidene)ureido)-3-methyl-6,7-dihydro-5H-cyclopenta[b]pyridine-2-carboxylic acid]

- IC50 [2]: 5000 to 30000 nM
Structure (SMILES): Cc1nc2c(c(NC(=O)N=S(N)(=O)c3cc(C(C)(C)O)cs3)c1C1CC1)CCC2 (single isomer, unassigned) [Compound 623b, (S) or (R)-N′-((3-cyclopropyl-2-methyl-6,7-dihydro-5H-cyclopenta[b]pyridin-4-yl)carbamoyl)-4-(2-hydroxypropan-2-yl)thiophene-2-sulfonimidamide]

- IC50 (Homo sapiens, THP-1, Table B1, class symbols, read-out: Average IC50 of compounds in hTHP-1 assay: hTHP-1 IC50): 1000 to 5000 nM
Structure (SMILES): CC(C)(O)c1nc(S(N)(=O)=NC(=O)Nc2c3c(nc4c2CCC4)CCC3)cs1 (single isomer, unassigned) [Compound 154a, (R) or (S)-N′-((1,2,3,5,6,7-hexahydrodicyclo-penta[b,e]pyridin-8-yl)carbamoyl)-2-(2-hydroxypropan-2-yl)thiazole-4-sulfonimidamide]

- IC50 [5]: 200 to 1000 nM
Structure (SMILES): C[C@H]1CCc2c1nc1c(c2NC(=O)N=[S@@](N)(=O)c2cnc(C(C)(C)O)s2)CCC1 [Compound 162ba, (R,S)-2-(2-hydroxypropan-2-yl)-N′-((3-methyl-1,2,3,5,6,7-hexahydrodicyclo-penta[b,e]pyridin-8-yl)carbamoyl)thiazole-5-sulfonimidamide]
